Reference: patent US20100305303A1, “INHIBITING AGENT FOR INHIBITION OF ANGIOGENESIS, A METHOD FOR PREPARING THE AGENT, A METHOD FOR MODIFYING THE AGENT AND ITS USE FOR MANUFACTURING A MEDICAMENT FOR TREATING TUMOR” (priority 2007, published 2010)
Residues, ends and D or L forms follow the SMILES beside them. No end group written: not given here. *: point of attachment. Palmitoyl = CCCCCCCCCCCCCCCC(=O)*

How the values were obtained:
[1] = Half-life of polypeptides in plasma at 37° C. (HPLC); type: in vitro ADME; details: 800 μg/ml, 20 μl injected on HPLC
Experimental: Survey on the half-life of polypeptides in plasma at 37° C. after modification. Preparation of blood drug samples: after crude drug (volume V) (800 ug/ml) +1V plasma were mixed and diluted with 2V water evenly, incubated for 0, 5, 30 min at 37° C. respectively, immediately heated at 80° C. for 30 min; the negative control: after 1V plasma were diluted and mixed with 3 V water evenly, and heated for 30 min at 80° C. The positive control group: after 1V crude drug (800 ug/ml) were diluted and mixed evenly with 3V water, heated for 30 min at 80° C. The samples were the modified products, […] at 14000 rpm for 10 min. The supernatant was fetched for HPLC analysis with the injection size of 20 ul.

[2] = tested on: Bel-7402 tumor cells; experiment: Binding of FITC labeled polypeptides to integrin-expressing tumor cells by flow cytometry; parameters: unit not given here; details: FITC labeled polypeptide, dosage 1 μg/μl, Bel-7402 cells, 25 min
Experimental: Analysis of the binding of polypeptide s and integrin by flow cytometry. Bel-7402 tumor cells were used, which can express integrin. The cells were cultured in a 24-well plate, and the cells were collected and washed with ice-cold PBS twice. Before labeling, the cells were suspended in PBS +1% BSA, maintained for 30 min, added with 1 μl FITC labeled polypeptide s (P1, P2, P3, P4, P5, P6, P7, P8, P9, P10, P11, P12, P13, P14, P15, P16, RGD and ES-2) for reaction for 25 min. After labeling, the cells were collected and washed twice with PBS, suspended again in 400 μl PBS and analysis was conducted with a flow cytometry (Becton Dickinson, USA). FITC fluorescence was determined at FL1 channel The cells with FITC feature would be further analyzed.

[3] = tested on: B16F10 melanoma cells; experiment: In vivo anti-tumor test, B16F10 melanoma; details: B16F10 in C57BL/6 mice, 5 mg/kg/d contralateral subcutaneous injection, 9th day
Experimental: The cultured B16F10 melanoma cells were treated with 0.05% trypsin, centrifuged at 1000 rpm for 5 min, suspended again in PBS, inoculated subcutaneously with 0.1 ml of 5×10^5 cells at the body sides of C57BL/6 mice (6-8 weeks). When the average tumor size reached 200 mm3-300 mm3, the mice were randomly divided into two groups, 7 mice for each group, of which, one group of mice were treated with RGD-ED, and the other group were treated with ED not containing RGD, with the doses of 5 mg/kg/d for the two groups, and the control group of mice were subject to PBS injection. The treatment method was contralateral subcutaneous injection of the inoculated tumors.

[4] = tested on: NIH 3T3 cells; experiment: Cell proliferation analysis on non-endothelial cells; type: cell-based; details: non-endothelial NIH 3T3 cells, 48 h
Experimental: The culture of BCE cells and NIH 3T3 cells, method: the culture solution DMEM contained 10% inactivated calf serum (BCS), 1% antibiotics and 3 ng/ml bFGF. Cell proliferation analysis method is as follows: washed the cells with PBS, digested with trypsin, added with culture solution suspension cells and centrifuged and collected cells, and regulated the cell concentrations to 25,000 cells/ml. The cells were moved to 6-well plates (0.5 ml/well) and cultured for 24 h. Replaced the culture medium as 1 ml DMEM, 5% BCS, 1% antibiotics, 1 ng/ml bFGF. Different doses of samples were added to each hole, and further cultured for 48 h, digested the cells with trypsase, re-suspended in PBS, fixed with 70% ice-cold ethanol and stained with 7-AAD, and then conducted analysis with flow cytometry.

[5] = tested on: CAMs; experiment: CAM analysis of anti-angiogenic activity; type: in vivo, chick
Experimental: To detect the in vivo anti-angiogenic activity, CAM analysis was carried out. All the tests were carried out on the ultra-clean platform under sterile conditions. The 6-day disinfected chick embryos were cultured under the condition of 37° C., 90% humidity. After 2 days, the top of each egg was punched and the reagents were dripped into the sterile Whatman filter paper, then put on the CAMs vascular clustered area, cultivated for 48 hours, and observed the chick embryos and CAMs and took pictures.

[6] = tested on: human liver cancer SGC7901; experiment: In vivo anti-tumor test, SGC7901 xenograft; details: SGC7901 in nude mice, 3 mg/kg/d contralateral subcutaneous injection, 10th day
Experimental: (§1) The cultured human liver cancer SGC7901 was treated with 0.05% trypsin, centrifuged at 1000 rpm for 5 min, suspended again in PBS, inoculated subcutaneously with 0.1 ml of 5×10^5 cells on the body sides of nude mice (6-8 weeks). When the average tumor size reached 100 mm^3-200 mm^3, the mice were randomly divided into three groups, 7 mice for each group, of which, one group of mice were treated with RGD-ED, one group were treated with RGD-ED modified with liposome, and the third group were treated with RGD-ED modified with polyethylene glycol, with the doses of 3 mg/kg/d for the three groups, and the control group of mice were subject to PBS injection. The treatment method was contralateral subcutaneous injection of the inoculated tumors.
as §1, with “with liposome-modified RGD-ED,” for “with RGD-ED modified with liposome,”, “with” for “with RGD-ED modified with”, “polyethylene glycol-modified RGD-ED,” for “polyethylene glycol,”, “injection. […]” for “injection. The treatment method was contralateral subcutaneous injection of the inoculated tumors.”

| Compound | Binding Value [2] | other results |
| --- | --- | --- |
| CCCCCCCCCCCCCCCC(=O)N[C@@H](CCCNC(=N)N)C(=O)NCC(=O)N[C@@H](CC(=O)O)C(=O)NCC(=O)NCC(=O)NCC(=O)NCC(=O)N[C@H](C(=O)N[C@H](C(=O)N[C@@H](CCCNC(=N)N)C(=O)N[C@@H](CCCNC(=N)N)C(=O)N[C@@H](C)C(=O)N[C@@H](CC(=O)O)C(=O)N[C@@H](CCCNC(=N)N)C(=O)N[C@@H](C)C(=O)N[C@@H](C)C(=O)N[C@H](C(=O)N1CCC[C@H]1C(=O)O)C(C)C)C(C)C)[C@@H](C)CC [Palmitic acid-modified substance] (Palmitoyl-RGDGGGGIVRRADRAAVP-OH; C-terminus assumed) |  | half-life [1]: 12 min |
| ACDCRGDCFCIVRRADRAAVP (cysteine pairing not given here) [P10] | 63.28 |  |
| ACDCRGDCFCIVRRADRAAVPACDCRGDCFC (cysteine pairing not given here) [P13] | 59.25 |  |
| Ala-Cys-Asp-Cys-Arg-Gly-Asp-Cys-Phe-Cys-Ile-Val-Arg-Arg-Ala-Asp-Arg-Ala-Ala-Val-Pro-linker-Ala-Cys-Asp-Cys-Arg-Gly-Asp-Cys-Phe-Cys [P15] | 64.11 |  |
| Ala-Cys-Asp-Cys-Arg-Gly-Asp-Cys-Phe-Cys-linker-Ile-Val-Arg-Arg-Ala-Asp-Arg-Ala-Ala-Val-Pro [P9] | 66.04 |  |
| Ala-Cys-Asp-Cys-Arg-Gly-Asp-Cys-Phe-Cys-linker-Ile-Val-Arg-Arg-Ala-Asp-Arg-Ala-Ala-Val-Pro-Ala-Cys-Asp-Cys-Arg-Gly-Asp-Cys-Phe-Cys [P14] | 58.32 |  |
| Ala-Cys-Asp-Cys-Arg-Gly-Asp-Cys-Phe-Cys-linker-Ile-Val-Arg-Arg-Ala-Asp-Arg-Ala-Ala-Val-Pro-linker-Ala-Cys-Asp-Cys-Arg-Gly-Asp-Cys-Phe-Cys [P16] | 66.12 |  |
| Arg-Gly-Asp-Ile-Val-Arg-Arg-Ala-Asp-Arg-Ala-Ala-Val-Pro-linker-Arg-Gly-Asp [P7] | 60.25 |  |
| Arg-Gly-Asp-linker-Ile-Val-Arg-Arg-Ala-Asp-Arg-Ala-Ala-Val-Pro-Arg-Gly-Asp [P8] | 58.30 |  |
| Arg-Gly-Asp-linker-Ile-Val-Arg-Arg-Ala-Asp-Arg-Ala-Ala-Val-Pro-linker-Arg-Gly-Asp [P6] | 60.27 |  |
| IVRRADRAAVP [ED, reference compound] | 18.35 | tumor inhibition rate [3]: 28% |
| IVRRADRAAVPACDCRGDCFC (cysteine pairing not given here) [P12] | 67.28 |  |
| IVRRADRAAVPRGD [P4] | 60.13 |  |
| Ile-Val-Arg-Arg-Ala-Asp-Arg-Ala-Ala-Val-Pro-linker-Ala-Cys-Asp-Cys-Arg-Gly-Asp-Cys-Phe-Cys [P11] | 60.20 |  |
| Ile-Val-Arg-Arg-Ala-Asp-Arg-Ala-Ala-Val-Pro-linker-Arg-Gly-Asp [P3] | 58.96 |  |
| RGDGGGGIVRRADRAAVP [P1] | 63.21 | half-life [1]: 7 min |
| RGDIVRRADRAAVP [P2] | 62.15 |  |
| RGDIVRRADRAAVPRGD [P5] | 59.40 |  |
| arginine-glycine-aspartic acid [RGD, reference compound] | 59.45 |  |
| designed angiogenesis inhibitor: ED polypeptide joined to a sequence containing Arg-Gly-Asp, expressed recombinantly in E. coli; exact sequence not stated [RGD-ED] |  | inhibitory effect on NIH 3T3 cell proliferation [4]: no inhibitory effect; inhibition of neovascularization and angiogenesis in CAM ([5]; 0.05 μg, 0.1 μg and 0.2 μg, 48 hours): significantly inhibit; chick embryo death in CAM test ([5]; 0.5 μg): cause chick embryo death; inhibition of angiogenesis in CAM ([5]; 0.5 μg, 48 hours): completely inhibit; tumor inhibition rate [3]: 58%; tumor inhibition rate [6]: 68% |
